Among the data in patent US9765056B2, “Indole and pyrrole compounds, a process for their preparation and pharmaceutical compositions containing them” (LES LABORATOIRES SERVIER, priority 2013, dated 2017) are IC50 and inhibition values, retold here.

The target in assay [1] is Bcl-2 protein (histag-Bcl-2, UniProtKB P10415) (Homo sapiens (Human), UniProt P10415). Nature of the assay: Inhibition of Bcl-2 by the fluorescence polarisation technique. Conditions: for IC50: fluorescence polarisation test, method A, or method B where underlined (underlining not visible), read-out: IC50 (nM) Bcl-2 FP. In kind it is binding. The source says: Inhibition of Bcl-2 by the fluorescence polarisation technique
For orientation: Fluorescence polarisation rises when a labelled molecule tumbles more slowly, as on binding a larger partner.

Assay [2] has as its system RS4;11 leukaemia tumour line. Description: In vitro cytotoxicity, Microculture Tetrazolium Assay (MTT). In kind it is cell-based. Conditions: Homo sapiens; RS4;11 cells, 48 hours exposure. As for the experimental part:
The cytotoxicity studies were carried out on the RS4;11 leukaemia tumour line.
The cells are distributed onto microplates and exposed to the test compounds for 48 hours. The cell viability is then quantified by a colorimetric assay, the Microculture Tetrazolium Assay (Cancer Res., 1987, 47, 939-942).

Structures can show the parent of a compound that is named as a salt.

Sequence of Bcl-2 protein (P10415 whole entry): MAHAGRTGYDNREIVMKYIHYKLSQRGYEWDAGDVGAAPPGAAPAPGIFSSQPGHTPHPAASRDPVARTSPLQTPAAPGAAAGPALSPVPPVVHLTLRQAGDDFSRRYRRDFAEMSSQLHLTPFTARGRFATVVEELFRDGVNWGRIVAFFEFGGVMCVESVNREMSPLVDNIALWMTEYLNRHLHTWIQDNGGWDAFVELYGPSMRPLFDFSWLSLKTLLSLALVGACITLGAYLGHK

Take `Cc1cc(C(=O)N(c2ccccc2)c2ccc(O)cc2)cn1-c1cc2c(cc1C(=O)N1Cc3ccccc3C[C@H]1CN1CCOCC1)CCC2` [Example 107, N-(4-Hydroxyphenyl)-5-methyl-1-(6-{[(3S)-3-(morpholin-4-ylmethyl)-3,4-dihydroisoquinolin-2(1H)-yl]carbonyl}-2,3-dihydro-1H-inden-5-yl)-N-phenyl-1H-pyrrole-3-carboxamide hydrochloride]: the IC50 – broadly, the concentration needed to halve the response being measured – in assay [1] is 44 nM; in assay [2], 150 nM.
In the same order, the values of `Cc1cc(C(=O)N(c2ccccc2)c2ccc(O)cc2)cn1-c1cc2c(cc1C(=O)N1Cc3ccccc3C[C@H]1CN1CCOCC1)OCO2` [Example 108, N-(4-Hydroxyphenyl)-5-methyl-1-(6-{[(3S)-3-(morpholin-4-ylmethyl)-3,4-dihydroisoquinolin-2(1H)-yl]carbonyl}-1,3-benzodioxol-5-yl)-N-phenyl-1H-pyrrole-3-carboxamide hydrochloride] are 35.5 nM and 544 nM.
Take `Cc1cc(C(=O)N(c2ccc(O)cc2)c2ccc3c(ccn3C)c2)cn1-c1cc2c(cc1C(=O)N1Cc3ccccc3C[C@H]1CN1CCOCC1)OCO2` [Example 109, N-(4-Hydroxyphenyl)-5-methyl-N-(1-methyl-1H-indol-5-yl)-1-(6-{[(3S)-3-(morpholin-4-ylmethyl)-3,4-dihydroisoquinolin-2(1H)-yl]carbonyl}-1,3-benzodioxol-5-yl)-1H-pyrrole-3-carboxamide hydrochloride]: the IC50 was determined as 4.4 nM in assay [1] and 116 nM in assay [2].
As to `Cc1cc(C(=O)N(c2ccc(O)cc2)c2ccc3c(c2)CCN3)cn1-c1cc2c(cc1C(=O)N1Cc3ccccc3C[C@H]1CN1CCOCC1)CCC2` [Example 110, N-(2,3-Dihydro-1H-indol-5-yl)-N-(4-hydroxyphenyl)-5-methyl-1-(6-{[(3S)-3-(morpholin-4-ylmethyl)-3,4-dihydroisoquinolin-2(1H)-yl]carbonyl}-2,3-dihydro-1H-inden-5-yl)-1H-pyrrole-3-carboxamide hydrochloride], the IC50 in assay [1] worked out at 8.1 nM; in assay [2], 291 nM.
On to `Cc1cc(C(=O)N(c2ccc(O)cc2)c2cccc(N3CCN(C)CC3)c2)cn1-c1cc2c(cc1C(=O)N1Cc3ccccc3C[C@H]1C)OCO2` [Example 112, N-(4-Hydroxyphenyl)-5-methyl-1-(6-{[(3R)-3-methyl-3,4-dihydroisoquinolin-2(1H)-yl]carbonyl}-1,3-benzodioxol-5-yl)-N-[3-(4-methylpiperazin-1-yl)phenyl]-1H-pyrrole-3-carboxamide hydrochloride], for which the IC50 in assay [1] was 11.8 nM; in assay [2], 281 nM.
For `O=C(c1cn(-c2cc3c(cc2C(=O)N2Cc4ccccc4C[C@H]2CN2CCOCC2)OCO3)c2c1CCCC2)N(c1ccccc1)c1ccc(O)cc1` [Example 113, N-(4-Hydroxyphenyl)-1-(6-{[(3S)-3-(morpholin-4-ylmethyl)-3,4-dihydroisoquinolin-2(1H)-yl]carbonyl}-1,3-benzodioxol-5-yl)-N-phenyl-4,5,6,7-tetrahydro-1H-indole-3-carboxamide hydrochloride], in that order: 19.2 nM and 203 nM.
Regarding `Cc1cc(C(=O)N(c2ccc(O)cc2)c2ccc3c(c2)CN(C)C3)cn1-c1cc2c(cc1C(=O)N1Cc3ccccc3C[C@H]1C)OCO2` [Example 114, N-(4-Hydroxyphenyl)-5-methyl-N-(2-methyl-2,3-dihydro-1H-isoindol-5-yl)-1-(6-{[(3R)-3-methyl-3,4-dihydroisoquinolin-2(1H)-yl]carbonyl}-1,3-benzodioxol-5-yl)-1H-pyrrole-3-carboxamide hydrochloride], the IC50 in assay [1] was found to be 23.7 nM; in assay [2], 726 nM.
In the case of `Cc1cc(C(=O)N(c2ccc(O)cc2)c2ccc3c(c2)CCN3C)cn1-c1cc2c(cc1C(=O)N1Cc3ccccc3C[C@H]1C)OCO2` [Example 115, N-(4-Hydroxyphenyl)-5-methyl-N-(1-methyl-2,3-dihydro-1H-indol-5-yl)-1-(6-{[(3R)-3-methyl-3,4-dihydroisoquinolin-2(1H)-yl]carbonyl}-1,3-benzodioxol-5-yl)-1H-pyrrole-3-carboxamide hydrochloride], the values for the IC50 in assay [1] and in assay [2] were 14.5 nM and 272 nM, respectively.
For the compound `Cc1cc(C(=O)N(c2ccc(O)cc2)c2ccc3c(ccn3CCN3CCOCC3)c2)cn1-c1cc2c(cc1C(=O)N1Cc3ccccc3C[C@H]1C)OCO2` [Example 116, N-(4-Hydroxyphenyl)-5-methyl-1-(6-{[(3R)-3-methyl-3,4-dihydroisoquinolin-2(1H)-yl]carbonyl}-1,3-benzodioxol-5-yl)-N-{1-[2-(morpholin-4-yl)ethyl]-1H-indol-5-yl}-1H-pyrrole-3-carboxamide hydrochloride], the IC50 was 12.1 nM in assay [1] and 131 nM in assay [2].
Turning to `Cc1cc(C(=O)N(c2ccc(O)cc2)c2ccc3c(ccn3C)c2)cn1-c1cc2c(cc1C(=O)N1Cc3ccccc3C[C@H]1CN1CCOCC1)CCC2` [Example 117, N-(4-Hydroxyphenyl)-5-methyl-N-(1-methyl-1H-indol-5-yl)-1-(6-{[(3S)-3-(morpholin-4-ylmethyl)-3,4-dihydroisoquinolin-2(1H)-yl]carbonyl}-2,3-dihydro-1H-inden-5-yl)-1H-pyrrole-3-carboxamide hydrochloride], the half-maximal inhibitory concentration (IC50) in assay [1] amounted to 7.6 nM; in assay [2], 193 nM.
For the compound `Cc1cc(C(=O)N(c2ccc(O)cc2)c2ccc3c(ccn3C)c2)cn1-c1cc2c(cc1C(=O)N1Cc3ccccc3C[C@H]1CN1CCOCC1)CCO2` [Example 118, N-(4-Hydroxyphenyl)-5-methyl-N-(1-methyl-1H-indol-5-yl)-1-(5-{[(3S)-3-(morpholin-4-ylmethyl)-3,4-dihydroisoquinolin-2(1H)-yl]carbonyl}-2,3-dihydro-1-benzofuran-6-yl)-1H-pyrrole-3-carboxamide], the IC50 was 5.9 nM in assay [1] and 114 nM in assay [2].
For `Cc1cc(C(=O)N(c2ccc(O)cc2)c2ccc3c(ccn3C)c2)cn1-c1cc2occc2cc1C(=O)N1Cc2ccccc2C[C@H]1CN1CCOCC1` [Example 119, N-(4-Hydroxyphenyl)-5-methyl-N-(1-methyl-1H-indol-5-yl)-1-(5-{[(3S)-3-(morpholin-4-ylmethyl)-3,4-dihydroisoquinolin-2(1H)-yl]carbonyl}-1-benzofuran-6-yl)-1H-pyrrole-3-carboxamide hydrochloride], the IC50 in assay [1] worked out at 28.4 nM; in assay [2] it was 96.4 nM.
For `Cc1cc(C(=O)N(c2ccccc2)c2ccc(O)cc2)cn1-c1cc2c(cc1C(=O)N1Cc3ccccc3C[C@H]1CCN1CCOCC1)OCO2` [Example 120, N-(4-Hydroxyphenyl)-5-methyl-1-(6-{[(3S)-3-[2-(morpholin-4-yl)ethyl]-3,4-dihydroisoquinolin-2(1H)-yl]carbonyl}-1,3-benzodioxol-5-yl)-N-phenyl-1H-pyrrole-3-carboxamide hydrochloride], in that order: 15 nM and 367 nM.
In the case of `CCCCN(CCCC)C(=O)c1nn(-c2ccccc2C(=O)N2Cc3ccccc3C[C@H]2CN)c2ccccc12` [Example 121, 1-{2-[(3S)-3-(Aminomethyl)-1,2,3,4-tetrahydroisoquinoline-2-carbonyl]-phenyl}-N,N-dibutyl-1H-indazole-3-carboxamide], the IC50 in assay [1] amounted to 448 nM; in assay [2] it was 8770 nM.
With `NC[C@@H]1Cc2ccccc2CN1C(=O)c1ccccc1-n1nc(C(=O)N(c2ccccc2)c2ccccc2)c2ccccc21` [Example 122, 1-{2-[(3S)-3-(Aminomethyl)-1,2,3,4-tetrahydroisoquinoline-2-carbonyl]phenyl}-N,N-diphenyl-1H-indazole-3-carboxamide], the concentration for half-maximal inhibition (IC50) in assay [1] was determined as 53.3 nM; in assay [2], 2290 nM.
For `NC[C@@H]1Cc2ccccc2CN1C(=O)c1ccccc1-n1cc(C(=O)N(c2ccccc2)c2ccccc2)c2ccccc21` [Example 123, 1-{2-[(3S)-3-(Aminomethyl)-1,2,3,4-tetrahydroisoquinoline-2-carbonyl]-phenyl}-N,N-diphenyl-1H-indole-3-carboxamide], in that order: 90 nM and 2370 nM.
In the same order, the values of `NC[C@@H]1Cc2ccccc2CN1C(=O)c1ccccc1-n1cc(C(=O)N(c2ccccc2)c2ccc(O)cc2)c2ccccc21` [Example 131, 1-{2-[(3S)-3-(Aminomethyl)-1,2,3,4-tetrahydroisoquinoline-2-carbonyl}phenyl]-N-(4-hydroxyphenyl)-N-phenyl-1H-indole-3-carboxamide] are 18.9 nM and 469 nM.
`NC[C@@H]1Cc2ccccc2CN1C(=O)c1cc2c(cc1-n1nc(C(=O)N(c3ccccc3)c3ccccc3)c3ccccc31)OCO2` [Example 132, 1-{6-[(3S)-3-(Aminomethyl)-1,2,3,4-tetrahydroisoquinoline-2-carbonyl]-2H-1,3-benzodioxol-5-yl}-N,N-diphenyl-1H-indazole-3-carboxamide]: the IC50 in assay [1] came to 31.7 nM; in assay [2], 1860 nM.
Take `COc1cc(-n2nc(C(=O)N(c3ccccc3)c3ccccc3)c3ccccc32)c(C(=O)N2Cc3ccccc3C[C@H]2CN)cc1OCc1ccccc1` [Example 134, 1-{2-[(3S)-3-(Aminomethyl)-1,2,3,4-tetrahydroisoquinoline-2-carbonyl]-4-(benzyloxy)-5-methoxyphenyl}-N,N-diphenyl-1H-indazole-3-carboxamide]: the inhibition (commonly the share of the control response that was lost under treatment) at 22.2 µM in assay [1] (@22.2 μM test compound, partial inhibitor, read-out: percentage fluorescence polarisation inhibition (Bcl-2 FP)) is 72.1%. This compound also returned an IC50 in assay [2] of 2100 nM.
Take `COc1cc(-n2nc(C(=O)N(c3ccccc3)c3ccccc3)c3ccccc32)c(C(=O)N2Cc3ccccc3C[C@H]2CN)cc1O` [Example 135, 1-{2-[(3S)-3-(Aminomethyl)-1,2,3,4-tetrahydroisoquinoline-2-carbonyl]-4-hydroxy-5-methoxyphenyl}-N,N-diphenyl-1H-indazole-3-carboxamide]: the IC50 in assay [1] amounted to 10.4 nM; in assay [2], 461 nM.
